Data reported in patent US20250296929A1, “NOVEL HEPATOSELECTIVE POLYADENYLATING POLYMERASES INHIBITORS AND THEIR METHOD OF USE” (BARUCH S. BLUMBERG INSTITUTE, priority 2021, published 2025).
Where “and” joins values, the source holds several entries; their conditions need not be identical. Identical values can stand only once. Like-named read-outs stand apart in the source and are kept apart here.

What was measured:
[1] = Pharmacokinetics after 3 mg/kg IV administration, plasma; type: in vivo, CD1 mice
Protocol: (§1) Protocol for pharmacokinetic and tissue distribution studies. The pharmacokinetics of the compounds was studied in CD1 mice after intravenous (IV) and oral gavage (PO) administration. Mouse PK studies was conducted at 3 mg/kg (IV) and 8 mg/kg (PO). Plasma samples obtained from dosed animals, at ten time points, including 5, 15 and 30 minutes and 1, 1.5, 2, 4, 6, 8 and 24 hr post-dose for processing to plasma, were prepared for analysis by means of a single step protein precipitation technique, by adding 200 μL of acetonitrile containing an IS mixture (labetalol, imipramine and diclofenac) to 50 μL aliquots of individual subject samples. Samples were mixed by vortex for homogeneity and then subjected to centrifugation at 4000 rpm for 10 min. The supernatant (200 μL) was collected and injected into the LC-MS/MS for analysis. Pharmacokinetic parameters will be calculated using established non-compartmental methods. The liver distribution of the compounds was studied in the PO group and liver tissues were collected at each time point after PO administration. Accurately weighed whole liver tissues were collected in a 50 mL tube, and 3 volumes per weight of water will be added. Tissue samples were homogenized and 50 μL of the homogenates will be processed along with plasma samples as described above.

OATP1B3 = target: T1, OATP1B3 (Homo sapiens, UniProt Q9NPD5); test: OATP1B3 transporter substrate uptake in OATP1B3-HEK293 cells; type: in vitro ADME; details: test concentration 1 μM
T1 construct: expressed in transfected cells; host or cells: HEK293
T1 sequence (Q9NPD5 1-702): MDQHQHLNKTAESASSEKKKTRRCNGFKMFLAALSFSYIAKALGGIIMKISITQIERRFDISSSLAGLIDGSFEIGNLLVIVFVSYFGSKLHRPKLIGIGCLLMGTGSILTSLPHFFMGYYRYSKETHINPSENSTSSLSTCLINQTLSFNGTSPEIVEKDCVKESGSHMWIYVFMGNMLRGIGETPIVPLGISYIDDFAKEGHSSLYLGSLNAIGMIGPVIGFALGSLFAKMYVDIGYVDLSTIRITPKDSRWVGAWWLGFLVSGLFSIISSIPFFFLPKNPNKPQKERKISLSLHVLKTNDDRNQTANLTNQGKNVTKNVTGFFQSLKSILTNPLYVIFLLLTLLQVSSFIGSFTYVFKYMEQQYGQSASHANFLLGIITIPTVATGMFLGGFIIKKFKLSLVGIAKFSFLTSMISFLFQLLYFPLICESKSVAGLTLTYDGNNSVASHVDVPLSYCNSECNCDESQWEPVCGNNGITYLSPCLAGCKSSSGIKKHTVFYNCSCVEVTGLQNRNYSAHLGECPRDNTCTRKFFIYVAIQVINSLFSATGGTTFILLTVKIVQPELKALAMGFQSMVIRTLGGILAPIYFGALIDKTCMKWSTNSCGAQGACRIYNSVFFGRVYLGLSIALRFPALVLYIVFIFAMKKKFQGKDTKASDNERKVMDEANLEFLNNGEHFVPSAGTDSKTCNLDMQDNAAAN
Protocol: Protocol for identification of compounds that are substrates of transporters OATP1B1 and OATP1B3. Transfected HTEK293 and vector control HTEK293 cells were cultured in 24-well poly-D-lysine or collagen-coated tissue culture plates ([…]) for 2 and 10 minutes respectively in transport buffer (HIBSSg, pH 7.4, pre-warmed to 37° C.). At a defined time point, the uptake experiments were stopped by removing dosing solution followed by two washes of ice-cold HIBSSg buffer. The cells were lysed for 2 minutes with […] containing an appropriate internal standard (when available). Lysis buffer were chilled to −20° C., and the plate was kept on ice during lysis. The cell lysate was transferred into a 96-well plate for sample analysis with LC-MS/MS analysis to determine concentration of test compound in cell lysate. The uptake of test compounds was normalized by total cell protein using the BCA Protein Assay Kit following the manufacturer's protocol. The inhibitor Rifamycin SV was used to block OATP1B1 and OATP1B3 transporter activity in order to determine uptake ratios.

[2] = Liver distribution after 8 mg/kg oral dose (liver vs plasma); type: in vivo, CD1 mice
Protocol: as §1

[3] = CD1, mouse, plasma, iv, 3 mg/kg, individual mice
[4] = CD1, mouse, plasma, iv, 3 mg/kg, mean

COc1cc2c(cc1OCCCCCCC(=O)O)C[C@@H](C(C)C)n1cc(C(=O)O)c(=O)cc1-2 [Example 6, (S)-9-((6-carboxyhexyl)oxy)-6-isopropyl-10-methoxy-2-oxo-6,7-dihydro-2H-pyrido[2,1-a]isoquinoline-3-carboxylic acid]
Plasma concentration ([1]; 5 min, individual mice): 979 ng/mL and 689 ng/mL
Plasma concentration ([1]; 0.25 h, individual mice): 103 ng/mL and 73.0 ng/mL
Plasma concentration ([1]; 0.5 h, individual mice): 31.7 ng/mL and 24.9 ng/mL
Plasma concentration ([1]; 1 h, individual mice): 8.52 ng/mL and 6.79 ng/mL
Plasma concentration ([1]; 2 h, individual mice): 5.61 ng/mL and 5.51 ng/mL and 2.14 ng/mL
Plasma concentration ([1]; 4 h, individual mice): 1.69 ng/mL and BLOQ
Plasma concentration ([1]; 8 h, individual mice): BLOQ
Plasma concentration ([1]; 24 h, individual mice): BLOQ
concentration at 5 min ([1]; CD1, mouse, plasma, intravenous, 3 mg/kg, 5 min, individual mice, read-out: Plasma concentration): 817 ng/mL
concentration at 5 min ([1]; CD1, mouse, plasma, intravenous, 3 mg/kg, 5 min, mean, read-out: Mean plasma concentration): 828 ng/mL
concentration at 0.25 h ([1]; CD1, mouse, plasma, intravenous, 3 mg/kg, 0.25 h, individual mice, read-out: Plasma concentration): 82.3 ng/mL
concentration at 0.25 h ([1]; CD1, mouse, plasma, intravenous, 3 mg/kg, 0.25 h, mean, read-out: Mean plasma concentration): 86 ng/mL
concentration at 0.5 h ([1]; CD1, mouse, plasma, intravenous, 3 mg/kg, 0.5 h, individual mice, read-out: Plasma concentration): 32.8 ng/mL
concentration at 0.5 h ([1]; CD1, mouse, plasma, intravenous, 3 mg/kg, 0.5 h, mean, read-out: Mean plasma concentration): 29.8 ng/mL
concentration at 1 h ([1]; CD1, mouse, plasma, intravenous, 3 mg/kg, 1 h, individual mice, read-out: Plasma concentration): 11.4 ng/mL
concentration at 1 h ([1]; CD1, mouse, plasma, intravenous, 3 mg/kg, 1 h, mean, read-out: Mean plasma concentration): 8.9 ng/mL
concentration at 2 h ([1]; CD1, mouse, plasma, intravenous, 3 mg/kg, 2 h, mean): 4.42 ng/mL
concentration at 4 h ([1]; CD1, mouse, plasma, intravenous, 3 mg/kg, 4 h, individual mice, read-out: Plasma concentration): 1.85 ng/mL
concentration at 4 h ([1]; CD1, mouse, plasma, intravenous, 3 mg/kg, 4 h, mean, read-out: Mean plasma concentration): 1.77 ng/mL
concentration at 8 h ([1]; CD1, mouse, plasma, intravenous, 3 mg/kg, 8 h, individual mice): 1.08 ng/mL
AUC(0-inf) [1, 3]: 268 ng·h/mL
AUC(0-t) [1, 3]: 263 ng·h/mL
C0 ([1]; CD1, mouse, plasma, iv, 3 mg/kg, individual mice, read-out: C0): 2570 ng/mL
AUC(0-inf) [1, 4]: 258 ng·h/mL
AUC(0-t) [1, 4]: 255 ng·h/mL
half-life [1, 4]: 88.8 min
C0 ([1]; CD1, mouse, plasma, iv, 3 mg/kg, mean, read-out: C0): 2570 ng/mL
MRT inf ([1]; CD1, mouse, plasma, iv, 3 mg/kg, mean, read-out: MRTInf —obs): 17.2 min
Vd ([1]; CD1, mouse, plasma, iv, 3 mg/kg, mean, read-out: Vss —obs): 3.26 L/kg
AUCInf ([1]; individual mice): 301 ng·h/mL and 206 ng·h/mL
AUClast ([1]; individual mice): 298 ng·h/mL and 205 ng·h/mL
AUC—% Extrap_obs ([1]; individual mice): 1.59% and 1.03% and 0.662%
C0 ([1]; individual mice): 3016 ng/mL and 2115 ng/mL
Cl_obs ([1]; individual mice): 187 mL/min/kg and 166 mL/min/kg and 242 mL/min/kg
MRTInf —obs ([1]; individual mice): 30.1 min and 13.8 min and 7.68 min
T1/2 ([1]; individual mice): 163 min and 76.2 min and 26.5 min
Vss —obs ([1]; individual mice): 5.63 L/kg and 2.29 L/kg and 1.87 L/kg
AUClast/D ([1]; mean): 85.1 kg·ng·h/mL/mg
AUC—% Extrap_obs ([1]; mean): 1.09%
Cl_obs ([1]; mean): 198 mL/min/kg
Uptake Ratio (−/+Inhibitor) (OATP1B3; OATP1B3-HEK293 cells, inhibitor Rifamycin SV): 11.57
Uptake Ratio (Transporter(−Inhibitor)/Mock(−Inhibitor)) (OATP1B3; OATP1B3-HEK293 vs Mock): 24.80
Liver concentration ([2]; 0.25 h, individual animals): 428 ng/g and 372 ng/g and 199 ng/g
Ratio (liver/plasma) ([2]; 0.25 h, individual animals): 41.6 and 19.1 and 10.8
Liver concentration ([2]; 0.5 h, individual animals): 241 ng/g and 321 ng/g
Ratio (liver/plasma) ([2]; 0.5 h, individual animals): 24.3 and 35.6
Liver concentration ([2]; 1 h, individual animals): 237 ng/g and 404 ng/g
Ratio (liver/plasma) ([2]; 1 h, individual animals): 39.9 and 43.6
Liver concentration ([2]; 2 h, individual animals): 377 ng/g and 299 ng/g and 108 ng/g
Ratio (liver/plasma) ([2]; 2 h, individual animals): 65.8 and 47.3
Liver concentration ([2]; 4 h, individual animals): 128 ng/g and 179 ng/g
Ratio (liver/plasma) ([2]; 4 h, individual animals): 42.2 and 43.5
Liver concentration ([2]; 6 h, individual animals): 130 ng/g and 43.2 ng/g and 55.6 ng/g
Ratio (liver/plasma) ([2]; 6 h, individual animals): 28.2 and 23.0
Liver concentration ([2]; 8 h, individual animals): 106 ng/g and 37.6 ng/g and 45.6 ng/g
Ratio (liver/plasma) ([2]; 8 h, individual animals): 17.8
concentration at 0.5 h ([2]; CD1, mouse, liver, oral, 8 mg/kg, 0.5 h, individual animals): 366 ng/g
concentration at 1 h ([2]; CD1, mouse, liver, oral, 8 mg/kg, 1 h, individual animals): 259 ng/g
concentration at 4 h ([2]; CD1, mouse, liver, oral, 8 mg/kg, 4 h, individual animals): 106 ng/g
Kp at 0.25 h ([2]; CD1, mouse, liver/plasma, oral, 8 mg/kg, 0.25 h, mean, read-out: Ratio (liver/plasma) Mean): 23.8
Kp at 0.5 h ([2]; CD1, mouse, liver/plasma, oral, 8 mg/kg, 0.5 h, individual animals, read-out: Ratio (liver/plasma)): 38.9
Kp at 0.5 h ([2]; CD1, mouse, liver/plasma, oral, 8 mg/kg, 0.5 h, mean, read-out: Ratio (liver/plasma) Mean): 32.9
Kp at 1 h ([2]; CD1, mouse, liver/plasma, oral, 8 mg/kg, 1 h, individual animals, read-out: Ratio (liver/plasma)): 63.1
Kp at 1 h ([2]; CD1, mouse, liver/plasma, oral, 8 mg/kg, 1 h, mean, read-out: Ratio (liver/plasma) Mean): 48.9
Kp at 2 h ([2]; CD1, mouse, liver/plasma, oral, 8 mg/kg, 2 h, individual animals, read-out: Ratio (liver/plasma)): 69.6
Kp at 2 h ([2]; CD1, mouse, liver/plasma, oral, 8 mg/kg, 2 h, mean, read-out: Ratio (liver/plasma) Mean): 60.9
Kp at 4 h ([2]; CD1, mouse, liver/plasma, oral, 8 mg/kg, 4 h, individual animals, read-out: Ratio (liver/plasma)): 28.9
Kp at 4 h ([2]; CD1, mouse, liver/plasma, oral, 8 mg/kg, 4 h, mean, read-out: Ratio (liver/plasma) Mean): 38.2
Kp at 6 h ([2]; CD1, mouse, liver/plasma, oral, 8 mg/kg, 6 h, individual animals, read-out: Ratio (liver/plasma)): 45.6
Kp at 6 h ([2]; CD1, mouse, liver/plasma, oral, 8 mg/kg, 6 h, mean, read-out: Ratio (liver/plasma) Mean): 32.3
Kp at 8 h ([2]; CD1, mouse, liver/plasma, oral, 8 mg/kg, 8 h, individual animals, read-out: Ratio (liver/plasma)): 15.9
Kp at 8 h ([2]; CD1, mouse, liver/plasma, oral, 8 mg/kg, 8 h, mean, read-out: Ratio (liver/plasma) Mean): 16.8
